The text below walks through data of article PMC9719519, “Non-classical ferroptosis inhibition by a small molecule targeting PHB2” (Nature Communications, 2022).

What all share (experiment): biochemical
Set-up in all cases: Eurofins recombinant human kinase profiling, remaining kinase activity as % of control, 10 uM ATP
Details in all cases: ATP 10 uM; read-out: %Ctrl@10 μM

One assay deals with T1, Src(1-530)(h) (Homo sapiens, UniProt P12931).
T1 construct: residues 1-530
The text has this: (§1) To rapidly determine the biological target of YL-939, we first tested the activity of YL-939 against a panel of 401 recombinant human protein kinases by using the kinase profiling assay provided by Eurofins, since kinases are often the key components in various signal pathways[35],[36]. […] We then carried out affinity-based proteome profiling assay (ABPP) coupled with bioimaging to identify the biological target of YL-939 (Fig. 4A). To this end, we designed and synthesized a photoaffinity probe, YL-939-1 (Fig. 4A and Supplementary Fig. 5), which is YL-939 attached by a photo-crosslinker (L3) that contains a photo-reactive group diazirine and a clickable alkyne handle.

A further assay concerns the target T2, MKK6(h) (Homo sapiens, UniProt P52564).
T2 construct: gene MAP2K6
Text: as §1

The target in the next assay is T3, CHK2(I157T)(h) (Homo sapiens, UniProt O96017, I157T).
T3 construct: gene CHEK2
Text: as §1

Another assay deals with EphA8(h) (Homo sapiens, UniProt P29322).
Text: as §1

Another assay has as its target T4, ALK2(h) (Homo sapiens, UniProt Q04771).
T4 construct: gene ACVR1
Text: as §1

The target of a further assay is T5, TAO1(h) (Homo sapiens, UniProt Q7L7X3).
T5 construct: gene TAOK1
T5 sequence (Q7L7X3 whole entry): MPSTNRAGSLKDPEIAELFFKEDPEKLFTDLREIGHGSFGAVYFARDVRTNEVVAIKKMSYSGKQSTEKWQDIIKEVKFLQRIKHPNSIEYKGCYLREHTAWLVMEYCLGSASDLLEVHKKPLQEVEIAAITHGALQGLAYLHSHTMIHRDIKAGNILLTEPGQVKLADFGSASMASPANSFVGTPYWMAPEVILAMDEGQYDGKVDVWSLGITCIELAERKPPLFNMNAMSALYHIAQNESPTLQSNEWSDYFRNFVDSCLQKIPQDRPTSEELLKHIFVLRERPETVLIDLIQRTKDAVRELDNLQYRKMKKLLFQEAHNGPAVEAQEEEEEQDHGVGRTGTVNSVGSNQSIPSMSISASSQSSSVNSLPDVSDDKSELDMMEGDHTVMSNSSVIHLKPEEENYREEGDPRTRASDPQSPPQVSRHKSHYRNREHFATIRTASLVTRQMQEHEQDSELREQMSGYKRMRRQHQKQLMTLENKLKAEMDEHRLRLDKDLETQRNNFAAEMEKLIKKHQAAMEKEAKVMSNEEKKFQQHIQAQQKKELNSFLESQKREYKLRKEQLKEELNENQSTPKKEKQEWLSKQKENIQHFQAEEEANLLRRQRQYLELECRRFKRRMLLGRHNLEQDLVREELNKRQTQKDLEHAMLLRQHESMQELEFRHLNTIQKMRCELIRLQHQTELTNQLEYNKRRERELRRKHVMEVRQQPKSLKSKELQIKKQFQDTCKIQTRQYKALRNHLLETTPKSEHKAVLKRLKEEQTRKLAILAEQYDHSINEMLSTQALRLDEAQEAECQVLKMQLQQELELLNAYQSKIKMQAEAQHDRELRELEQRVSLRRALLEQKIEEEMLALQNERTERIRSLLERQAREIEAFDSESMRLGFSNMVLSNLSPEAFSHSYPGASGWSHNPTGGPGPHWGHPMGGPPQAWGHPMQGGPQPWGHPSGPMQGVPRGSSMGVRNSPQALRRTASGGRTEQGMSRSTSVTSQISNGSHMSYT
Text: as §1

A further assay deals with T6, PKR(h) (Homo sapiens, UniProt P19525).
T6 construct: gene EIF2AK2
Text: as §1

The next assay has as its target EphA4(h) (Homo sapiens, UniProt P54764).
Text: as §1

The target in a further assay is TSSK3(h) (Homo sapiens, UniProt Q96PN8).
Chain of TSSK3(h) (Q96PN8 whole entry): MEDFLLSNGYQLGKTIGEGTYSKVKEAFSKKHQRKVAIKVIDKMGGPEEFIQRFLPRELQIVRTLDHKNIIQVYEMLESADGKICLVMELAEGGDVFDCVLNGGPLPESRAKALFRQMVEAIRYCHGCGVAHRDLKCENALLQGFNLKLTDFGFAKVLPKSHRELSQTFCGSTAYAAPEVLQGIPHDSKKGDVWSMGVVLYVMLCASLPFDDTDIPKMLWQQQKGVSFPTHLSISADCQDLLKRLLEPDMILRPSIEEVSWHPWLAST
Text: as §1

The next assay concerns the target T7, ACK1(h) (Homo sapiens, UniProt Q07912).
T7 construct: gene TNK2
Text: as §1

Another assay addresses DYRK2(h) (Homo sapiens, UniProt Q92630).
Text: as §1

The target in another assay is HIPK1(h) (Homo sapiens, UniProt Q86Z02).
Text: as §1

The next assay deals with WNK3(h) (Homo sapiens, UniProt Q9BYP7).
Text: as §1

In another assay the target is T8, PDGFRα(D842V)(h) (Homo sapiens, UniProt P16234, D842V).
T8 construct: gene PDGFRA
Text: as §1

A further assay deals with T9, TAO2(h) (Homo sapiens, UniProt Q9UL54).
T9 construct: gene TAOK2
Text: as §1

A further assay deals with MELK(h) (Homo sapiens, UniProt Q14680).
Chain of MELK(h) (Q14680 whole entry): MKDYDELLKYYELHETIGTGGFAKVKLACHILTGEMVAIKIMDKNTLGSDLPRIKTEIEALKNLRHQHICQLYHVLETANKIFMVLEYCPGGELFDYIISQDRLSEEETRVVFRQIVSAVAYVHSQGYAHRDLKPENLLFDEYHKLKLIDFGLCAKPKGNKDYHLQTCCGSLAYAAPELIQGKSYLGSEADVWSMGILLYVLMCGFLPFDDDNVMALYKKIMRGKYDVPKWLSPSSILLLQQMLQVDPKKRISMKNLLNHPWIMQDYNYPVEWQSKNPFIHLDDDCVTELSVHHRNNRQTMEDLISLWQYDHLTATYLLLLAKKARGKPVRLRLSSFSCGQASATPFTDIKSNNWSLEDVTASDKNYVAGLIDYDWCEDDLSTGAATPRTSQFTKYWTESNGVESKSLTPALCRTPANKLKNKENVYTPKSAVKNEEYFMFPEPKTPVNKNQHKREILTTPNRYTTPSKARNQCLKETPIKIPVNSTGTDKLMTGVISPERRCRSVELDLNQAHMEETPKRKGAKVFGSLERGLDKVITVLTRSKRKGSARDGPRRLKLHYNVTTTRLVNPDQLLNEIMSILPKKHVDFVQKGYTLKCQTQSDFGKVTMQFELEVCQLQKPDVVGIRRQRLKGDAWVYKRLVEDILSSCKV
Text: as §1

In another assay the target is T10, CK1γ1(h) (Homo sapiens, UniProt Q9HCP0).
T10 construct: gene CSNK1G1
Text: as §1

In another assay the target is EGFR(L858R)(h) (Homo sapiens, UniProt P00533, L858R).
Chain of EGFR(L858R)(h) (P00533 whole entry L858R): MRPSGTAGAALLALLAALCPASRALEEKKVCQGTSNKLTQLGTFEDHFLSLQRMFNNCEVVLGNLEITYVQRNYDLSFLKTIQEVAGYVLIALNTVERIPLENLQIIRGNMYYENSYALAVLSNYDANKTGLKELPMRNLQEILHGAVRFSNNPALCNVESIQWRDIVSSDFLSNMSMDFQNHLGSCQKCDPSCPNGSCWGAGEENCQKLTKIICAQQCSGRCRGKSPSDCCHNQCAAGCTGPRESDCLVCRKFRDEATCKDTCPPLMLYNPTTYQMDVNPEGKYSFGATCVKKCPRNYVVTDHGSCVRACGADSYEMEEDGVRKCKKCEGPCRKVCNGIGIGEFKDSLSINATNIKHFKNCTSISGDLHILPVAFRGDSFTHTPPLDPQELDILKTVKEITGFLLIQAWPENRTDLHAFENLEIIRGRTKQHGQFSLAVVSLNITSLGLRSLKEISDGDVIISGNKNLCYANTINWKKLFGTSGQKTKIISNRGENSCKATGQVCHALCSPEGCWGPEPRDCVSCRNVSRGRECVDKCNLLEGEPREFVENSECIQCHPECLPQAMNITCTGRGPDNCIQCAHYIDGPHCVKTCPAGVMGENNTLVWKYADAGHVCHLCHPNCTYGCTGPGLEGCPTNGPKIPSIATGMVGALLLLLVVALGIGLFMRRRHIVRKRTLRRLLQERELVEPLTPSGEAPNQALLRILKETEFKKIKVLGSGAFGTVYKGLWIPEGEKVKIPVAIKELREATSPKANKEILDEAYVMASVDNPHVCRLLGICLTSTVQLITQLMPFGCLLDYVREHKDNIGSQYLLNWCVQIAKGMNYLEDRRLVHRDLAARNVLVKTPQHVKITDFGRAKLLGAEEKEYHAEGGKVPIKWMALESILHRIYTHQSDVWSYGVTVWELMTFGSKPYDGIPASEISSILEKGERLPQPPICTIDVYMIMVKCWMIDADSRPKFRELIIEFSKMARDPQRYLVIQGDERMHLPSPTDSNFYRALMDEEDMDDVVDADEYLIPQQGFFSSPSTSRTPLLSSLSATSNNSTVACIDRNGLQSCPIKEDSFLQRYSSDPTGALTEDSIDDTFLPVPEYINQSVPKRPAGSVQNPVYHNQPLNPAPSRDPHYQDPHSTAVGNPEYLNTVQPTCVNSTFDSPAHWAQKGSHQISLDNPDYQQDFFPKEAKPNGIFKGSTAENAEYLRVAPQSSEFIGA
Text: as §1

The next assay addresses TSSK2(h) (Homo sapiens, UniProt Q96PF2).
Text: as §1

The target in a further assay is T11, MEK2(h) (Homo sapiens, UniProt P36507).
T11 construct: gene MAP2K2
Text: as §1

The target of another assay is NEK7(h) (Homo sapiens, UniProt Q8TDX7).
Chain of NEK7(h) (Q8TDX7 whole entry): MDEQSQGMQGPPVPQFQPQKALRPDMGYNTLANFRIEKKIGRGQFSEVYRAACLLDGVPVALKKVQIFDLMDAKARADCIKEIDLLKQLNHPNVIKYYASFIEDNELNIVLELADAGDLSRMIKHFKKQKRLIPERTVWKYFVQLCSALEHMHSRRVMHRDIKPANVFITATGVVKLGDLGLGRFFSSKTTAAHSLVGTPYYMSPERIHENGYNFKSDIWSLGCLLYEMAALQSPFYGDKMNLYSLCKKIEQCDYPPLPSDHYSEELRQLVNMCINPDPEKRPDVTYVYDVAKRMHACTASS
Text: as §1

Another assay addresses Tec(h) activated (Homo sapiens, UniProt P42680).
Text: as §1

Chain of DYRK2(h) (Q92630 whole entry): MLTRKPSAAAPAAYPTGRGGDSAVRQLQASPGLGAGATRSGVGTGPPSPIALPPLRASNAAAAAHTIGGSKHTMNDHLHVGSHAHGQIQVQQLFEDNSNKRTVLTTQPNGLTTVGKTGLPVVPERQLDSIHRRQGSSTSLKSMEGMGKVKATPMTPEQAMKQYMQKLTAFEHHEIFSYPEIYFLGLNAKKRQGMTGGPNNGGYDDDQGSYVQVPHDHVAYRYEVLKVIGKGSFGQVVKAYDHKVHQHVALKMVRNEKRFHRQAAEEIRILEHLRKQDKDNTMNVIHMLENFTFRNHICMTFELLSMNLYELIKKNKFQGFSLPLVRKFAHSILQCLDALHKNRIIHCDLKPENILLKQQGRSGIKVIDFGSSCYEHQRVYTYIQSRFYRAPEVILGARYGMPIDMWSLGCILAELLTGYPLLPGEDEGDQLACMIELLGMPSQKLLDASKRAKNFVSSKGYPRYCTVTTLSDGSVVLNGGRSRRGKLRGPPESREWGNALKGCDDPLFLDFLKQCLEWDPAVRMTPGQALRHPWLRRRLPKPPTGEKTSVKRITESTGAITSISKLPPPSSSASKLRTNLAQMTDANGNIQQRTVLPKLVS
T7 sequence (Q07912 whole entry): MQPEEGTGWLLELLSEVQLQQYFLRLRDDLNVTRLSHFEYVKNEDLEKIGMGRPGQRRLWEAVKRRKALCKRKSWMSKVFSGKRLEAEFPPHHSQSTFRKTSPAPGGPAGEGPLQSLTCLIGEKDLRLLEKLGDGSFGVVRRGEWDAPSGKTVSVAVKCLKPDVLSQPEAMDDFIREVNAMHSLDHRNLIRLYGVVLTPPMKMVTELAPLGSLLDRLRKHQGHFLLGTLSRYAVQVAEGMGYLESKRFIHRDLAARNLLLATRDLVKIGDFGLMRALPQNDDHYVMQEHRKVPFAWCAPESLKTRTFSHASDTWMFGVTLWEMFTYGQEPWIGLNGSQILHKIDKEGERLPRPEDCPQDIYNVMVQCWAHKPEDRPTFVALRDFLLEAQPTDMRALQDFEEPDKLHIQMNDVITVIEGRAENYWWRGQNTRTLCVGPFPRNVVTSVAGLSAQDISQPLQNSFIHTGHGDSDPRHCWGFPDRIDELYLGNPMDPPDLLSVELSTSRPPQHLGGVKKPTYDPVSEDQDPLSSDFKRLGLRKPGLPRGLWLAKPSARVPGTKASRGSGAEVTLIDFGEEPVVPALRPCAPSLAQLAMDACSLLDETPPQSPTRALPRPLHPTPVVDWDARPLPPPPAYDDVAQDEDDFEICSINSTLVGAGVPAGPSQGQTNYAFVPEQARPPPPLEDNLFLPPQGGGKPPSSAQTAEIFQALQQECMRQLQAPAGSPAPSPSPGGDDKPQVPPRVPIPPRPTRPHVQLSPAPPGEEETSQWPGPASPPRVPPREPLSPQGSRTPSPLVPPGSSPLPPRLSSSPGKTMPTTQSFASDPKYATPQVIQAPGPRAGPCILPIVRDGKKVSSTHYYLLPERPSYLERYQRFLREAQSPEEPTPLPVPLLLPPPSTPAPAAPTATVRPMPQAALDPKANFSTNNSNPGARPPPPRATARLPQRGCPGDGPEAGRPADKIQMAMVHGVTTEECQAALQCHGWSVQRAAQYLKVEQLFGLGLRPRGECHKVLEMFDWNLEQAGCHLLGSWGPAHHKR

`C1=C(c2nc(-c3cnn(C4CCNCC4)c3)cn3cc(-c4ccccc4)nc23)CCOC1` [YL-939]: the remaining activity at 10 µM amounted to 85% at Src(1-530)(h); 106% on MKK6(h); 87% at CHK2(I157T)(h); 76% at EphA8(h); 88% at ALK2(h); 81% on TAO1(h). The remaining activity at 10 µM at PKR(h) stood at 97%; on EphA4(h), 89%; on TSSK3(h), 87%; at ACK1(h), 85%; at DYRK2(h), 93%; at HIPK1(h), 97%. The remaining activity at 10 µM on WNK3(h) amounted to 87%; on PDGFRα(D842V)(h), 113%; at TAO2(h) it was 90%; on MELK(h) it was 91%; on CK1γ1(h), 112%; at EGFR(L858R)(h), 86%. Moreover, the remaining activity at 10 µM on TSSK2(h) was 83%; at MEK2(h), 89%; on NEK7(h) it was 89%; at Tec(h) activated, 70%.
